Experimental data as given in patent US8623340B2, “Omega-cyclohexylalkan-1-oles and use thereof as antimicrobial actives to combat body odor” (Symrise AG, priority 2009, dated 2014).
Values after ≈ are worked out from the molar mass of the structure shown.

What was measured:
Assay type in all cases: cell-based
[1] = test system: Staphylococcus epidermidis (ATCC 12228); assay: quantitative suspension test
[2] = test system: Corynebacterium xerosis (DSM 20743, ATCC 373) biofilm; assay: Biofilm formation, classic assay (crystal violet staining CV580); details: 12.5 μg/ml
Text: The recognition that the compounds of formula (I) are also very particularly suitable for either inhibition of initial biofilm formation and stagnation or even detachment of pre-existing biofilms is based on a series of investigations relating to the particularly relevant microorganism Corynebacterium xerosis. The antimicrobial action of the compounds of formula (I) on biofilms is hereby detected with the assistance of a staining method. Crystal violet staining is used to quantify amount of biofilm in the presence and absence of an antimicrobial active ingredient. A possible inhibitory action of the test substance used is identified from the staining profile. Corynebacterium xerosis can adhere to artificial laboratory surfaces and contribute to biofilm formation much the same way as it can do on skin in vivo. Therefore we furtheron established a test system to evaluate the influence of antimicrobial active compounds of formula (I) on Corynebacterium xerosis forming a biofilm or already residing in a biofilm. […] Biofilm formation can be analyzed by crystal violet staining with subsequent spectroscopic quantitation at 580 nm (CV580). […] Anti-microbial effects of test compounds on biofilm formation was determined by CV580 crystal violet staining 18-24 hours after inoculation and several washing steps that are needed to separate planctonic grown microorganisms.

[3] = test system: Corynebacterium xerosis (DSM 20743, ATCC 373) biofilm; assay: Biofilm, mid-log assay on pre-existing biofilm (crystal violet staining CV580); details: 12.5 μg
Text: The recognition that the compounds of formula (I) are also very particularly suitable for either inhibition of initial biofilm formation and stagnation or even detachment of pre-existing biofilms is based on a series of investigations relating to the particularly relevant microorganism Corynebacterium xerosis. The antimicrobial action of the compounds of formula (I) on biofilms is hereby detected with the assistance of a staining method. Crystal violet staining is used to quantify amount of biofilm in the presence and absence of an antimicrobial active ingredient. A possible inhibitory action of the test substance used is identified from the staining profile. […] Biofilm formation can be analyzed by crystal violet staining with subsequent spectroscopic quantitation at 580 nm (CV580). […] Optical density OD580 was then measured followed by crystal violet staining and spectroscopic quantitation of the biofilm at 580 nm (CV580). Mid-log time point was determined by cultivating untreated C. xerosis cells on separate control plates. CV580 crystal violet staining data of untreated control cells at mid-log were recorded. […] CV580 of untreated control samples was also recorded. […] Thus, untreated control cells will reach a value of 200%, corresponding to twice the exactly determined mid-log time point (half-maximal values for CV580; which was set 100%). […]

[4] = test system: Staphylococcus epidermidis (ATCC 12228); assay: MIC determination by turbidimetric growth curves; details: ATCC12228, 16 h, 37° C., turbidimetry 620 nm, read-out: MIC (complete inhibition of growth, usage concentration)
Text: (§1) The observation that the compounds of formula (I) are very particularly suitable for combating microorganisms which are responsible for body odor is based on a series of investigations relating to the particularly relevant microorganisms Staphylococcus epidermidis Corynebacterium xerosis, and Brevibacterium epidermidis. The antimicrobial action of the compounds of formula (I) is here detected with the assistance of a turbidimetric measurement method. Turbidity measurement is used to establish growth curves for the particular microorganism in the presence and absence of an antimicrobial active ingredient. A possible inhibitory action of the test substance used is identified from the profile of the growth curves. Solutions with saline or DMSO for 100% growth are prepared as a negative control. The active substances to be investigated are first diluted in DMSO in reaction vessels. Dilution is carried out in accordance with the concentration range to be tested and corresponds in each case to 100 times the concentration of the subsequent final concentration in the test Testing is usually begun with a final concentration of 2000 ppm (corresponding to 0.2 wt.-%) in the test. Growth curves at final concentrations of 1000 ppm, 500 ppm, 250 ppm, 125 ppm, 64 ppm, 32 ppm, 16 ppm and 8 ppm are subsequently determined. The bacterial cultures are then incubated in the presence of the various final concentrations of antimicrobial active ingredient for 16 h (incubation temperature: 37° C.). The absorption values (wavelength 620 nm; measurement interval: 20 minutes) obtained over the 16 hour period of turbidimetric measurement are recorded and exported into the spreadsheet program MS Excel. Means from in each case three parallel batches are calculated and used as the basis for establishing growth curves. The curves of the individual test sample concentrations are compared with those for the negative controls and the MIC value (minimum inhibitory concentration) is determined. The MIC value is the concentration at which no further growth is observable by turbidimetry.

[5] = test system: Corynebacterium xerosis (DSM 20743); assay: MIC determination by turbidimetric growth curves; details: 16 h, 37° C., turbidimetry 620 nm
Text: as §1

[6] = test system: Brevibacterium epidermidis (ATCC 35514); assay: MIC determination by turbidimetric growth curves; details: 16 h, 37° C., turbidimetry 620 nm
Text: as §1

[7] = test system: Corynebacterium xerosis (DSM 20743); assay: quantitative suspension test
[8] = test system: Brevibacterium epidermidis (ATCC 35514); assay: quantitative suspension test

SMILES	antimicrobial activity in quantitative suspension test [1]	biofilm formation inhibition [2] [%]	biofilm observed compared to the untreated control (set to 200%; mid-log value 100%) [3] [%]	MIC [4] [µg/mL]	concentration establishing inhibition of the growth [5]	concentration establishing inhibition of the growth [6]	antimicrobial activity in quantitative suspension test [7]	antimicrobial activity in quantitative suspension test [8]
CC(CO)CCCC1CCCCC1 (stereo not shown) [5-cyclohexyl-2-methyl-pentanol]	confirm the antimicrobial activity	92	53	64 (≈ 347 µM)	below 0.2 wt. %	below 0.2 wt. %	confirm the antimicrobial activity	confirm the antimicrobial activity
CCCC(CO)CCCC1CCCCC1 (stereo not shown) [5-cyclohexyl-2-n-propyl-pentanol]	confirm the antimicrobial activity	65	100	16 (≈ 75.3 µM)	below 0.2 wt. %	below 0.2 wt. %	confirm the antimicrobial activity	confirm the antimicrobial activity
